The subject of data set [1] is wild-type, Nmur1 knockout, Nmur2 knockout and Nmur1/Nmur2 double knockout mice. The data set can be described thus: Acute feeding study in wild-type and Nmur knockout mice. The data set is classed as in vivo. On the procedure: Ad libitum fed male diet-induced obese mice obtained from Taconic Farms were weighed and dosed either i.p. or s.c. with NMS or NMU at about 30 minutes prior to the onset of the dark phase of the light cycle and provided with a pre-weighed aliquot of high fat diet (D12492: 60% kcal from fat: Research Diets, Inc.), which was then weighed two and 18 hours after the onset of the initial dark phase. Mice were weighed at the 18 hour (overnight) time point.
NMUR1 knockout (Nmur1−/−) mice were generated using standard homologous recombination techniques. Nmur1 mice were subsequently transferred to Taconic Farms where they were either maintained on a 75% C57BL/6×25% 129S6/SvEv mixed genetic background or backcrossed 6 generations to C57BL/6. NMUR2 knockout (Nmur2−/−) mice were licensed from Deltagen Inc., San Mateo, Calif. and subsequently transferred to Taconic Farms were they were either maintained on a 75% C57BL/6×25% 129/OlaHsd mixed genetic background or backcrossed for 7 generations to C57BL/6. NMUR1 and NMUR2 double knockout (Nmur1&2−/−) mice were generated by crossing N6 Nmur1−/− mice to N7 Nmur2−/− mice. Mice were individually housed in Tecniplast cages in a conventional SPF facility. Mice were initially maintained on a regular chow diet and then early in their life were switched to a high fat diet (D12492) with ad libitum access to water in a 12-h light/12-h dark cycle.
The anorectic effects of NMS1 were mediated by both the NMUR1 and NMUR2 receptors. […] Effects on food intake (FIG. 9A) and body weight (FIG. 9B) are shown.

A short description of data set [2]: Pharmacokinetic analysis using the FLIPR-based bioassay of plasma. The data set is classed as in vivo. To be noted: mice, 10 mg/kg subcutaneously, FIG. 5. On the procedure:
Peptide exposure levels in dosed animals were measured using the bioassay. Animals were dosed subcutaneously and plasma was collected at various time points post-dose. The bioassay is a FLIPR-based assay that measures the concentration of peptide in plasma from animals dosed with hNMU-25 or NMS. The assay is run essentially as described above (Example 2) with the following modifications: sample preparation prior to the assay is performed on ice to minimize degradation of plasma samples. The assay was run with 4% plasma as the final concentration. A three-point titration was done with the dosed plasma and tested on human NMUR1-expressing cell lines using FLIPR. The response after sample addition was taken as the maximum fluorescence units minus the fluorescence immediately prior to stimulation for each well. In addition to a three-point titration of dosed plasma samples, a 16-point titration of the peptide (hNMU-25 or NMS) was run in 4% plasma (naive plasma) to serve as the standard. The concentration of the peptide in plasma was calculated based on extrapolations from the appropriate standard using the GraphPad Prism software.
In the experiment, the animals were dosed subcutaneously with 10 mg/kg of human NMU-25 or human NMS and plasma was collected at various time points post dose and measured in the Bioassay. […]

Data set [3] relates to male C57BL/6 diet-induced obese mice. Briefly: Intraperitoneal glucose tolerance test (IPGTT). The data set is classed as in vivo. The settings on record: one and three mpk injected 30 minutes before IPGTT, glucose 2 g/kg i.p., either dosage level. As to the method:
Fourteen male C57BL/6 diet-induced obese mice (˜30 wk age) were used. Five hours before the experiment, food was removed, and clean cages were provided. Saline with or without NMS at one and three mpk were injected 30 minutes before the IPGTT and a blood sample was taken. Then glucose (2 g/kg) was injected intraperitoneally. Blood samples were taken after 15, 30, 60, 90, and 120 minutes and glucose levels were determined with the glucose oxidase method.

The next data set has as its target T1, dog NMUR2 (Canis lupus familiaris, UniProt A0A8I3MN59).
T1 construct: expressed in transfected cells
Briefly: FLIPR calcium mobilization assay, dog NMUR2 cell line. The data set is classed as cell-based. The text has this:
Human, mouse or rat cDNAs encoding NMUR1 or NMUR2 (as described in Howard et al. Nature 406: 70-74 (2000) were subcloned in pcDNA5 (Invitrogen) and transfected into FLP-In CHO cells and HEK-293 FLP-In cells purchased from Invitrogen (Carlsbad, Calif.) using lipofectamine (Invitrogen). The Flp-In system allows integration and expression of a particular gene of interest at a specific genomic location utilizing the Flp recombinase from yeast. The transfected cells were selected by growth in medium containing 200 μg/mL hygromycin (Invitrogen). Populations were frozen at early passage numbers, and these stocks were used for further studies. Stable clones that expressed the mRNAs were identified functionally by FLIPR as well as by RT-PCR. […] Two different rodent NMUR1 cell lines were thus generated: one with the codon as predicted from the genomic databases and another cell line with an engineered methionine (ATG) as the start codon. The dog NMU receptors were also cloned from intestine RNA (NMUR1) and brain (NMUR2) and stable cell lines were generated as used for the human and rodent cell lines. […] To ensure high levels of expression in a heterologous system, a dog NMUR1 cell line was generated that contains an ATG as the start codon. Additionally, stable cell lines expressing the human receptors were generated in HEK-293/aeq 17 cells which stably express the aequorin gene under the CMV promoter. The human NMUR2 cDNA was cloned into pcDNA3.1 and human NMUR1 was subcloned into pIRES-puro (Clontech, Mountain View, Calif.), after transfection cells were selected in media containing G418 and either hygromycin (NMUR2) or puromycin (NMUR1).
The NMU receptors signal primarily through Gαq/11 proteins; therefore calcium mobilization assays can be utilized for functional activity.
Stable cell lines expressing human and or rodent NMUR1 or human NMUR2 receptors are plated at a density of 12,000 cells per well overnight on poly-lysine coated 384-well black-walled plates. The following day, the media is removed from the plates and the cells were subsequently loaded with Fluo-3 (Molecular Probes), a calcium sensitive dye, diluted in FLIPR buffer (1× Hank's buffered saline containing 20 mM HEPES, 0.1% BSA, 2.5 mM probenecid (Sigma) and 1.6 mM TR40). All reagents are from Invitrogen unless otherwise noted. Peptide stocks are resuspended in DMSO at a stock concentration of 2 mM and diluted in FLIPR buffer on the day of the experiment to a 4 μM working stock solution.
After a 90 minute incubation at room-temperature, cell plates are loaded onto a FLIPR (Molecular Devices) to monitor cellular fluorescence (excitation=488 nm; emission=540 nm) before and after compound/peptide addition. Eight to twelve point dose responses are tested on NMUR-expressing cell lines using FLIPR with 1 μM peptide as the highest dose. The response after peptide addition is taken as the maximum fluorescence units minus the fluorescence immediately prior to stimulation for each well. EC50 values are calculated using GraphPad Prism (San Diego, Calif.) software.
Percent activity refers to the maximum response at 1 μM compared to the human NMU-25 response at the same concentration.

pEC50: −log10 of the molar value.

T1 sequence (A0A8I3MN59 1-378): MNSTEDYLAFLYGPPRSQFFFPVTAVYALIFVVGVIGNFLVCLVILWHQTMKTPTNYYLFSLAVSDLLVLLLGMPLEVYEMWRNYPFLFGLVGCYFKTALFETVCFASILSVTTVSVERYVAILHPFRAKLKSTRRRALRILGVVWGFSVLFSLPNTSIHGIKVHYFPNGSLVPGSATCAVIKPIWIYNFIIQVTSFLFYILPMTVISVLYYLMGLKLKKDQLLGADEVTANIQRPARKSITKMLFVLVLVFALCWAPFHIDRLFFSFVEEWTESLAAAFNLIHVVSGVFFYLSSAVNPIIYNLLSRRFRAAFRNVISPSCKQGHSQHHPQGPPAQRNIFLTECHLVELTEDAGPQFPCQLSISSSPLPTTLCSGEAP

The pEC50 is −log10 of the EC50, conventionally taken in molar units. In the case of “H-ILQRGSGTAAVDFTKKDHTATWGRPFFLFRPRN-NH2 [NMS, reference compound]”, the food intake result in data set [1] (Nmur1 knockout mice, highest dose tested) is listed as “modest but significant effect”; in data set [1] (acute peripheral administration, Nmur1 knockout mice), “not in Nmur1 knockout mice”; in data set [1] (acute peripheral administration, Nmur2 knockout mice), “significantly reduced”; in data set [1] (acute peripheral administration, wild-type mice), “significantly reduced”. Further, in data set [2], the “metabolic stability in vivo compared to NMU” value is given as “greater metabolic stability”. In addition, the “glucose metabolism (IPGTT)” value in data set [3] was “enhanced glucose metabolism”. Moreover, the pEC50 at dog NMUR2 (dog NMUR2, FLIPR) is 9.00. Further, at dog NMUR2 (dog NMUR2, maximum response at 1 μM compared to the human NMU-25 response at the same concentration), the “% Activity” value worked out at 104%.

The values above are taken from patent publication US20110301079A1, “NEUROMEDIN U RECEPTOR AGONISTS AND USES THEREOF” (Instituto di Ricerche di Biologia Molecolare P. Angeletti …, priority 2007, published 2011).
